Experiments:
Assay type in all cases: ADME
[1] = Drug metabolism in prednisone treated CD1 mouse liver microsomes assessed as 1alpha,23S,25(OH)3D3 metabolite formation at 20 uM after 30 mins by LC/MS analysis in presence of NADPH; details: 0.5 h
[2] = Drug metabolism in CD1 mouse liver microsomes assessed as metabolite formation at 20 uM after 30 mins by LC/MS analysis in presence of NADPH and CYP2A inhibitor 8-methoxypsoralen; details: 0.5 h
[3] = Drug metabolism in CD1 mouse liver microsomes assessed as metabolite formation at 20 uM after 30 mins by LC/MS analysis in presence of NADPH and CYP2B inhibitor orphenadrine; details: 0.5 h
[4] = Drug metabolism in prednisone treated CD1 mouse liver microsomes assessed as 1alpha,23R,25(OH)3D3 metabolite formation at 20 uM after 30 mins by LC/MS analysis in presence of NADPH; details: 0.5 h
[5] = Drug metabolism in prednisone treated CD1 mouse liver microsomes assessed as metabolite formation at 20 uM after 30 mins by LC/MS analysis in presence of NADPH and CYP450 inhibitor SKF525A; details: 0.5 h
Liver microsome [6] = experiment: Drug metabolism in human liver microsomes assessed as metabolite formation at 20 uM after 30 mins by LC/MS analysis in presence of NADPH and paclitaxel; details: 0.5 h
[7] = Drug metabolism in CD1 mouse liver microsomes assessed as metabolite formation at 20 uM after 30 mins by LC/MS analysis in presence of NADPH and CYP2E inhibitor di-ethyldithiocarbamate; details: 0.5 h
[8] = Drug metabolism in dexamethasone treated CD1 mouse liver microsomes assessed as metabolite formation at 20 uM after 30 mins by LC/MS analysis in presence of NADPH and CYP2C inhibitor sulfaphenazole; details: 0.5 h
[9] = Drug metabolism in CD1 mouse liver microsomes assessed as metabolite formation at 20 uM after 30 mins by LC/MS analysis in presence of NADPH and CYP1A2 inhibitor furafyline; details: 0.5 h
[10] = Drug metabolism in prednisone treated CD1 mouse liver microsomes assessed as 1alpha,24R,25(OH)3D3 metabolite formation at 20 uM after 30 mins by LC/MS analysis in presence of NADPH; details: 0.5 h
[11] = Drug metabolism in prednisone treated CD1 mouse liver microsomes assessed as metabolite formation at 20 uM after 30 mins by LC/MS analysis in presence of NADPH and CYP1A2 inhibitor furafyline; details: 0.5 h
Liver microsome [12] = experiment: Drug metabolism in human liver microsomes assessed as metabolite formation at 20 uM after 30 mins by LC/MS analysis in presence of NADPH and ketoconazole; details: 0.5 h
[13] = Drug metabolism in dexamethasone treated CD1 mouse liver microsomes assessed as metabolite formation at 20 uM after 30 mins by LC/MS analysis in presence of NADPH and CYP2D inhibitor quinine; details: 0.5 h
[14] = Drug metabolism in dexamethasone treated CD1 mouse liver microsomes assessed as metabolite formation at 20 uM after 30 mins by LC/MS analysis in presence of NADPH and CYP450 inhibitor SKF525A; details: 0.5 h
[15] = Drug metabolism in prednisone treated CD1 mouse liver microsomes assessed as metabolite formation at 20 uM after 30 mins by LC/MS analysis in presence of NADPH and CYP2C inhibitor sulfaphenazole; details: 0.5 h
[16] = Drug metabolism in CD1 mouse liver microsomes assessed as depletion of parent compound at 1 uM after 30 mins by LC/MS analysis in presence of NADPH; details: 0.5 h
[17] = Drug metabolism in CD1 mouse liver microsomes assessed as metabolite formation at 20 uM after 30 mins by LC/MS analysis in presence of NADPH and CYP2C inhibitor sulfaphenazole; details: 0.5 h
[18] = Drug metabolism in dexamethasone treated CD1 mouse liver microsomes assessed as metabolite formation at 20 uM after 30 mins by LC/MS analysis in presence of NADPH and CYP2B inhibitor orphenadrine; details: 0.5 h
[19] = Drug metabolism in CD1 mouse liver microsomes assessed as metabolite formation at 20 uM after 30 mins by LC/MS analysis in presence of NADPH and CYP450 inhibitor SKF525A; details: 0.5 h
Liver microsome [20] = experiment: Drug metabolism in human liver microsomes assessed as metabolite formation at 20 uM after 30 mins by LC/MS analysis in presence of NADPH and ritonavir; details: 0.5 h
[21] = Drug metabolism in CD1 mouse liver microsomes assessed as metabolite formation at 20 uM after 30 mins by LC/MS analysis in presence of NADPH and CYP1A1 inhibitor alpha-naphthoflavone; details: 0.5 h
[22] = Drug metabolism in dexamethasone treated CD1 mouse liver microsomes assessed as metabolite formation at 20 uM after 30 mins by LC/MS analysis in presence of NADPH and CYP2E inhibitor di-ethyldithiocarbamate; details: 0.5 h
[23] = Drug metabolism in prednisone treated CD1 mouse liver microsomes assessed as metabolite formation at 20 uM after 30 mins by LC/MS analysis in presence of NADPH and CYP2B inhibitor orphenadrine; details: 0.5 h
[24] = Drug metabolism in dexamethasone treated CD1 mouse liver microsomes assessed as 1alpha,24S,25(OH)3D3 metabolite formation at 20 uM after 30 mins by LC/MS analysis in presence of NADPH; details: 0.5 h
[25] = Drug metabolism in dexamethasone treated CD1 mouse liver microsomes assessed as depletion of parent compound at 1 uM after 30 mins by LC/MS analysis in presence of NADPH; details: liver microsomes from dexamethasone-treated mice, read-out: Drug metabolism
[26] = Drug metabolism in prednisone treated CD1 mouse liver microsomes assessed as metabolite formation at 20 uM after 30 mins by LC/MS analysis in presence of NADPH and CYP2D inhibitor quinine; details: 0.5 h
[27] = Drug metabolism in prednisone treated CD1 mouse liver microsomes assessed as depletion of parent compound at 1 uM after 30 mins by LC/MS analysis in presence of NADPH; details: 0.5 h
[28] = Drug metabolism in dexamethasone treated CD1 mouse liver microsomes assessed as 1alpha,23R,25(OH)3D3 metabolite formation at 20 uM after 30 mins by LC/MS analysis in presence of NADPH; details: 0.5 h
Liver microsome [29] = experiment: Drug metabolism in human liver microsomes assessed as metabolite formation at 20 uM after 30 mins by LC/MS analysis in presence of NADPH and docetaxel; details: 0.5 h
[30] = Drug metabolism in dexamethasone treated CD1 mouse liver microsomes assessed as metabolite formation at 20 uM after 30 mins by LC/MS analysis in presence of NADPH and CYP1A2 inhibitor furafyline; details: 0.5 h
[31] = Drug metabolism in prednisone treated CD1 mouse liver microsomes assessed as 1alpha,24S,25(OH)3D3 metabolite formation at 20 uM after 30 mins by LC/MS analysis in presence of NADPH; details: 0.5 h
[32] = Drug metabolism in dexamethasone treated CD1 mouse liver microsomes assessed as metabolite formation at 20 uM after 30 mins by LC/MS analysis in presence of NADPH and CYP1A1 inhibitor alpha-naphthoflavone; details: 0.5 h
Liver microsome [33] = experiment: Drug metabolism in human liver microsomes assessed as metabolite formation at 20 uM after 30 mins by LC/MS analysis in presence of NADPH and tamoxifen; details: 0.5 h
Liver microsome [34] = experiment: Drug metabolism in human liver microsomes assessed as assessed as metabolite formation at 20 uM after 30 mins by LC/MS analysis in presence of NADPH; details: 0.5 h
[35] = Drug metabolism in CD1 mouse liver microsomes assessed as metabolite formation at 20 uM after 30 mins by LC/MS analysis in presence of NADPH and CYP2D inhibitor quinine; details: 0.5 h
[36] = Drug metabolism in prednisone treated CD1 mouse liver microsomes assessed as metabolite formation at 20 uM after 30 mins by LC/MS analysis in presence of NADPH and CYP2A inhibitor 8-methoxypsoralen; details: 0.5 h
[37] = Drug metabolism in prednisone treated CD1 mouse liver microsomes assessed as metabolite formation at 20 uM after 30 mins by LC/MS analysis in presence of NADPH and CYP2E inhibitor di-ethyldithiocarbamate; details: 0.5 h
[38] = Drug metabolism in prednisone treated CD1 mouse liver microsomes assessed as metabolite formation at 20 uM after 30 mins by LC/MS analysis in presence of NADPH and CYP1A1 inhibitor alpha-naphthoflavone; details: 0.5 h
[39] = Drug metabolism in dexamethasone treated CD1 mouse liver microsomes assessed as metabolite formation at 20 uM after 30 mins by LC/MS analysis in presence of NADPH and CYP2A inhibitor 8-methoxypsoralen; details: 0.5 h

Drug metabolism [1]: metabolite_detected
Drug metabolism [2]: metabolite_detected
Drug metabolism [3]: metabolite_detected
Drug metabolism [4]: metabolite_detected
Drug metabolism [5]: metabolite_not_detected
Drug metabolism (Liver microsome [6]): metabolite_not_detected
Drug metabolism [7]: metabolite_detected
Drug metabolism [8]: metabolite_detected
Drug metabolism [9]: metabolite_detected
Drug metabolism [10]: metabolite_detected
Drug metabolism [11]: metabolite_detected
Drug metabolism (Liver microsome [12]): metabolite_not_detected
Drug metabolism [13]: metabolite_detected
Drug metabolism [14]: metabolite_not_detected
Drug metabolism [15]: metabolite_detected
Drug metabolism [16]: metabolite_not_detected
Drug metabolism [17]: metabolite_detected
Drug metabolism [18]: metabolite_detected
Drug metabolism [19]: metabolite_not_detected
Drug metabolism (Liver microsome [20]): metabolite_not_detected
Drug metabolism [21]: metabolite_detected
Drug metabolism [22]: metabolite_detected
Drug metabolism [23]: metabolite_detected
Drug metabolism [24]: metabolite_detected
metabolised at 0.5 h, 1 µM [25]: 70%
Drug metabolism [26]: metabolite_detected
Drug metabolism [27]: metabolite_not_detected
Drug metabolism [28]: metabolite_detected
Drug metabolism (Liver microsome [29]): metabolite_not_detected
Drug metabolism [30]: metabolite_detected
Drug metabolism [31]: metabolite_detected
Drug metabolism [32]: metabolite_detected
Drug metabolism (Liver microsome [33]): metabolite_not_detected
Drug metabolism (Liver microsome [34]): metabolite_detected
Drug metabolism [35]: metabolite_detected
Drug metabolism [36]: metabolite_detected
Drug metabolism [37]: metabolite_detected
Drug metabolism [38]: metabolite_detected
Drug metabolism [39]: metabolite_detected
SMILES: C=C1/C(=C\C=C2/CCC[C@]3(C)[C@@H]([C@H](C)CCCC(C)(C)O)CC[C@@H]23)C[C@@H](O)C[C@@H]1O [CALCITRIOL]
